Laboratory results reported in ChEMBL document CHEMBL1687804, “Comparative efficacies of human simulated exposures of telavancin and vancomycin against methicillin-resistant Staphylococcus aureus with a range of vancomycin MICs in a murine pneumonia model” (Antimicrob Agents Chemother, 2010).
Active and inactive are the calls of the source. The calls are words filed in the database; no cut-off is given here.

Columns and labels:
Staphylococcus aureus [1] = experiment: Antibacterial activity against hospital-associated methicillin-resistant Staphylococcus aureus isolate 56 (494) infected in neutropenic BALB/c mouse lung infection model assessed as reduction of CFU at 110 mg/kg, ip administered every 12 hrs measured after 24 hrs; assay type: functional, organism-based; set-up: dose 110 mg/kg
Homo sapiens = experiment: fAUC in human at 1 gram administered every 12 hrs; assay type: ADME, organism-based; settings: in vivo
Staphylococcus aureus [2] = experiment: Antibacterial activity against hospital-associated methicillin-resistant Staphylococcus aureus isolate 152 infected in neutropenic BALB/c mouse lung infection model assessed as reduction of CFU at 110 mg/kg, ip administered every 12 hrs measured after 24 hrs; assay type: functional, organism-based; set-up: dose 110 mg/kg
Staphylococcus aureus [3] = experiment: Antibacterial activity against community-associated methicillin-resistant Staphylococcus aureus isolate 156 infected in neutropenic BALB/c mouse lung infection model assessed as reduction of CFU at 110 mg/kg, ip administered every 12 hrs measured after 24 hrs; assay type: functional, organism-based; set-up: dose 110 mg/kg
Staphylococcus aureus [4] = experiment: Antibacterial activity against community-associated methicillin-resistant Staphylococcus aureus isolate 145 infected in neutropenic BALB/c mouse lung infection model assessed as reduction of CFU at 110 mg/kg, ip administered every 12 hrs measured after 24 hrs; assay type: functional, organism-based; set-up: dose 110 mg/kg
Staphylococcus aureus [5] = experiment: Antibacterial activity against hospital-associated methicillin-resistant Staphylococcus aureus isolate 336 infected in neutropenic BALB/c mouse lung infection model assessed as reduction of CFU at 110 mg/kg, ip administered every 12 hrs measured after 24 hrs; assay type: functional, organism-based; set-up: dose 110 mg/kg
Staphylococcus aureus [6] = experiment: Antibacterial activity against hospital-associated methicillin-resistant Staphylococcus aureus isolate 360 infected in neutropenic BALB/c mouse lung infection model assessed as reduction of CFU at 110 mg/kg, ip administered every 12 hrs measured after 24 hrs; assay type: functional, organism-based; set-up: dose 110 mg/kg
Staphylococcus aureus [7] = experiment: Antibacterial activity against hospital-associated methicillin-resistant Staphylococcus aureus isolate 412 infected in neutropenic BALB/c mouse lung infection model assessed as reduction of CFU at 110 mg/kg, ip administered every 12 hrs measured after 24 hrs; assay type: functional, organism-based; set-up: dose 110 mg/kg
Staphylococcus aureus [8] = experiment: Antibacterial activity against vancomycin-heteroresistant Staphylococcus aureus isolate 38 (Mu3) infected in neutropenic BALB/c mouse lung infection model assessed as reduction of CFU at 110 mg/kg, ip administered every 12 hrs measured after 24 hrs; assay type: functional, organism-based; set-up: dose 110 mg/kg
Staphylococcus aureus [9] = experiment: Antibacterial activity against vancomycin-heteroresistant Staphylococcus aureus isolate 443 infected in neutropenic BALB/c mouse lung infection model assessed as reduction of CFU at 110 mg/kg, ip administered every 12 hrs measured after 24 hrs; assay type: functional, organism-based; set-up: dose 110 mg/kg
Staphylococcus aureus [10] = experiment: Antibacterial activity against vancomycin-intermediate Staphylococcus aureus isolate 435 infected in neutropenic BALB/c mouse lung infection model assessed as reduction of CFU at 110 mg/kg, ip administered every 12 hrs measured after 24 hrs; assay type: functional, organism-based; set-up: dose 110 mg/kg
Staphylococcus aureus [11] = experiment: Antibacterial activity against vancomycin-intermediate Staphylococcus aureus isolate 440 (A6298) infected in neutropenic BALB/c mouse lung infection model assessed as reduction of CFU at 110 mg/kg, ip administered every 12 hrs measured after 24 hrs; assay type: functional, organism-based; set-up: dose 110 mg/kg
Staphylococcus aureus [12] = experiment: Antibacterial activity against vancomycin-intermediate Staphylococcus aureus isolate 453 (NRS23) infected in neutropenic BALB/c mouse lung infection model assessed as reduction of CFU at 110 mg/kg, ip administered every 12 hrs measured after 24 hrs; assay type: functional, organism-based; set-up: dose 110 mg/kg
Staphylococcus aureus [13] = experiment: Antibacterial activity against vancomycin-intermediate Staphylococcus aureus isolate 454 (NRS404) infected in neutropenic BALB/c mouse lung infection model assessed as reduction of CFU at 110 mg/kg, ip administered every 12 hrs measured after 24 hrs; assay type: functional, organism-based; set-up: dose 110 mg/kg
[14] = AUC (0 to 12 hrs) in BALB/c mouse at 110 mg/kg, sc; settings: plasma
Mus musculus = experiment: fAUC in BALB/c mouse at 110 mg/kg, sc administered every 12 hrs; settings: in vivo

CN[C@H](CC(C)C)C(=O)N[C@H]1C(=O)N[C@@H](CC(N)=O)C(=O)N[C@H]2C(=O)N[C@H]3C(=O)N[C@H](C(=O)N[C@H](C(=O)O)c4cc(O)cc(O)c4-c4cc3ccc4O)[C@H](O)c3ccc(c(Cl)c3)Oc3cc2cc(c3O[C@@H]2O[C@H](CO)[C@@H](O)[C@H](O)[C@H]2O[C@H]2C[C@](C)(N)[C@H](O)[C@H](C)O2)Oc2ccc(cc2Cl)[C@H]1O [VANCOMYCIN]
Activity (Staphylococcus aureus [1]): Active | fAUC (Homo sapiens): 208 µg·h/mL | Activity (Staphylococcus aureus [2]): Active | Activity (Staphylococcus aureus [3]): Active | Activity (Staphylococcus aureus [4]): Active | Activity (Staphylococcus aureus [5]): Active | Activity (Staphylococcus aureus [6]): Active | Activity (Staphylococcus aureus [7]): Active | Activity (Staphylococcus aureus [8]): Active | Activity (Staphylococcus aureus [9]): Active | Activity (Staphylococcus aureus [10]): Active | Activity (Staphylococcus aureus [11]): Active | Activity (Staphylococcus aureus [12]): Active | Activity (Staphylococcus aureus [13]): Active | AUC(0-t) at 12 h [14]: 140 µg·h/mL | fAUC (Mus musculus): 196 µg·h/mL
